{"source": "patent US9758527B2", "about": "“Cyclohexene derivative, preparation method therefor, and pharmaceutical composition for preventing or treating metabolic diseases, containing same as active ingredient” (HYUNDAI PHARM CO., LTD., priority 2014, dated 2017)", "key": {"[1]": {"test_system": "blood glucose level", "assay": "Oral glucose tolerance test (OGTT) in high-fat diet model", "type": "in vivo", "settings": "hypoglycemic level, 20 mg/kg oral, glucose 2 g/kg oral after 30 minutes; for inhibition in vivo at 20 mg/kg: Mus musculus, 2 h, read-out: % AUC", "description": "To evaluate in vivo effective effects of the cyclohexene derivatives according to the present invention, experiments were carried out, as follows.\nSpecifically, male C57BL/6J (C57 black 6) […] (8 to 10 weeks old) in a high-fat diet model were acclimated for at least 7 days, and only healthy rat populations were selected and subjected to an oral glucose tolerance test (OGTT). The rats were fasted for 12 to 15 hours, and then randomly divided into groups with five rats per group. Thereafter, each of the compounds of Examples 1, 14, 48, 69, 80, 118, 139, 147, 148, 169, 190, 199, 200, 204, 227, and Comparative Examples 1 and 2 according to the present invention was administered to the rats at a dose of 20 mg/kg. In this case, a vehicle (0.5%, carboxymethyl cellulose (CMC)) was administered as an untreated group, and the dose of the compound administered together with the vehicle was orally administered at 10 ml/kg. After 30 minutes of administration, glucose (2 g/kg) was orally administered at a dose of 10 ml/kg. A blood glucose level was measured using an Accu-Chek Active Strip (Rosche Diagnostic Co.). In this case, the glucose level in blood collected via caudal venipuncture was measured at time points of −30, 0, 20, 40, 60, and 120 minutes after glucose administration.\nIn Table 3, the unit “% AUC (area under the curve)” represents a hypoglycemic level."}, "[2]": {"target": "T1, G protein-coupled receptor 119 (GPR-119) (Mesocricetus auratus, UniProt A0A1U8CD06)", "T1 construct": "hamster-derived β-cells containing G protein-coupled receptor 119 (GPR-119), HIT-T15 cells; host or cells: HIT-T15 (hamster pancreatic β-cells)", "T1 sequence (A0A1U8CD06 1-334)": "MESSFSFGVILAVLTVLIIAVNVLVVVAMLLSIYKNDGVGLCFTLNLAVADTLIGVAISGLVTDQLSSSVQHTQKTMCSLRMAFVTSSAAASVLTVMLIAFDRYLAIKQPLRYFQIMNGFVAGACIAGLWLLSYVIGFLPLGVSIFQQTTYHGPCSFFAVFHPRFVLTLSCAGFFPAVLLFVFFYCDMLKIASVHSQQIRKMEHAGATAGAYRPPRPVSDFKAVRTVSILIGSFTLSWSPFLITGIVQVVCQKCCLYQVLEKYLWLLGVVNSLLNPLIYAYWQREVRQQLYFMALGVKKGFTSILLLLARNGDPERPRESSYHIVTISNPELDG", "assay": "Evaluation of cAMP activity in HIT-T15 cells (HTRF cAMP dynamic kit)", "type": "cell-based, hamster", "settings": "cAMP activation", "how_it_was_run": "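HIT-T15 cells, 60,000/well, treated next day with compound at six concentrations ([…]) for 1 h at 37° C. Lysate cAMP quantified by HTRF competitive immunoassay (D2-cAMP, cryptate anti-cAMP); activity taken as change in FRET signal relative to DMSO.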"}, "[3]": {"settings": "1 h at 37° C., six concentrations, read-out: EC50"}}, "note": "Like-named read-outs stand apart in the source and are kept apart here.", "data": [{"molecule": "CC(C)c1noc(C2CCN(c3ncnc(Nc4ccc(S(C)(=O)=O)cc4F)c3[N+](=O)[O-])CC2)n1", "note": "[Comparative Example 1, N-(2-fluoro-4-methylsulfonylphenyl)-5-nitro-6-[4-(3-propan-2-yl-1,2,4-oxadiazol-5-yl)piperidin-1-yl]pyrimidine-4-amine, reference compound]", "values": [{"measurement": "inhibition in vivo at 20 mg/kg", "setting": "[1]", "result": 13.5, "unit": "%"}]}, {"molecule": "CC(C)c1noc(N2CCC(COc3ccc(-c4ccc(S(C)(=O)=O)cc4)nc3)CC2)n1", "note": "[Comparative Example 2, 2-(4-methanesulfonylphenyl)-5-({1-[3-(propan-2-yl)-1,2,4-oxadiazol-5-yl]piperidin-4-yl}methoxy)pyridine, reference compound]", "values": [{"measurement": "EC50", "setting": "[2]; EC50 (nM), 1 h at 37° C., six concentrations", "result": 49, "unit": "nM"}, {"measurement": "inhibition in vivo at 20 mg/kg", "setting": "[1]", "result": 15.3, "unit": "%"}]}, {"molecule": "C[C@H](CO)NC(=O)C1CC=C(c2ccc(OCC3CCN(C(=O)OC(C)(C)C)CC3)cc2)CC1", "note": "(stereo partly drawn) [Example 1, tert-butyl 4-((4-(4-((R)-1-hydroxypropan-2-ylcarbamoyl)cyclohex-1-enyl)phenoxy)methyl)piperidine-1-carboxylate]", "values": [{"measurement": "EC50", "setting": "[2]; [3]", "result": 65, "unit": "nM"}, {"measurement": "inhibition in vivo at 20 mg/kg", "setting": "[1]", "result": 28.5, "unit": "%"}]}, {"molecule": "CC(C)(C)OC(=O)N1CCC(COc2ccc(C3=CCC(C(=O)NC(CO)CO)CC3)nc2)CC1", "note": "(stereo not shown) [Example 14, tert-butyl 4-((6-(4-(1,3-dihydroxypropan-2-ylcarbamoyl)cyclohex-1-enyl)pyridin-3-yloxy)methyl)piperidine-1-carboxylate]", "values": [{"measurement": "EC50", "setting": "[2]; [3]", "result": 650, "unit": "nM"}, {"measurement": "inhibition in vivo at 20 mg/kg", "setting": "[1]", "result": 21.9, "unit": "%"}]}, {"molecule": "CC(C)(C)OC(=O)N1CCC(COc2ccc(C3=CCC(C(=O)N4CCOCC4)CC3)cc2F)CC1", "note": "(stereo not shown) [Example 69, tert-butyl 4-((2-fluoro-4-(4-(morpholine-4-carbonyl)cyclohex-1-enyl)phenoxy)methyl)piperidine-1-carboxylate]", "values": [{"measurement": "EC50", "setting": "[2]; [3]", "result": 7, "unit": "nM"}, {"measurement": "EC50", "setting": "[2]; read-out: EC50 value", "result": "≤ 50", "unit": "nM"}, {"measurement": "inhibition in vivo at 20 mg/kg", "setting": "[1]", "result": 19.1, "unit": "%"}]}, {"molecule": "CC(C)c1noc(N2CCC(COc3ccc(C4=CCC(C(=O)NC(CO)CO)CC4)cc3F)CC2)n1", "note": "(stereo not shown) [Example 80, N-(1,3-dihydroxypropan-2-yl)-4-(3-fluoro-4-((1-(3-isopropyl-1,2,4-oxadiazol-5-yl)piperidin-4-yl)methoxy)phenyl)cyclohex-3-enecarboxamide]", "values": [{"measurement": "EC50", "setting": "[2]; [3]", "result": 89, "unit": "nM"}, {"measurement": "inhibition in vivo at 20 mg/kg", "setting": "[1]", "result": 19.7, "unit": "%"}]}, {"molecule": "CCc1cnc(N2CCC(COc3ccc(C4=CCC(C(=O)N5CCC[C@@H]5CO)CC4)cc3)CC2)nc1", "note": "(stereo partly drawn) [Example 118, (4-(4-((1-(5-ethylpyrimidin-2-yl)piperidin-4-yl)methoxy)phenyl)cyclohex-3-enyl)((R)-2-(hydroxymethyl)pyrrolidin-1-yl)methanone]", "values": [{"measurement": "EC50", "setting": "[2]; [3]", "result": 31, "unit": "nM"}, {"measurement": "EC50", "setting": "[2]; read-out: EC50 value", "result": "≤ 50", "unit": "nM"}, {"measurement": "inhibition in vivo at 20 mg/kg", "setting": "[1]", "result": 23.5, "unit": "%"}]}, {"molecule": "CC(C)c1noc(N2CCC(COc3ccc(C4=CCC(C(=O)NCC(=O)N5CCC[C@H]5C#N)CC4)cc3F)CC2)n1", "note": "(stereo partly drawn) [Example 139, N-(2-((S)-2-cyanopyrrolidin-1-yl)-2-oxoethyl)-4-(3-fluoro-4-((1-(3-isopropyl-1,2,4-oxadiazol-5-yl)piperidin-4-yl)methoxy)phenyl)cyclohex-3-enecarboxamide]", "values": [{"measurement": "EC50", "setting": "[2]; [3]", "result": 130, "unit": "nM"}, {"measurement": "inhibition in vivo at 20 mg/kg", "setting": "[1]", "result": 25.4, "unit": "%"}]}, {"molecule": "CC(C)(C)OC(=O)N1CCC(COc2ccc(C3=CCC(C(=O)NCCO)CC3)cc2)CC1", "note": "(stereo not shown) [Example 190, tert-butyl 4-((4-(4-(2-hydroxyethylcarbamoyl)cyclohex-1-enyl)phenoxy)methyl)piperidine-1-carboxylate]", "values": [{"measurement": "% AUC", "setting": "[1]", "result": 20.9, "unit": "% AUC"}]}, {"molecule": "CON=C1CN(C(=O)C2CC=C(c3ccc(OCC4CCN(c5nc(C(C)C)no5)CC4)cc3)CC2)C1", "note": "(stereo not shown) [Example 286, (4-(4-((1-(3-isopropyl-1,2,4-oxadiazol-5-yl)piperidin-4-yl)methoxy)phenyl)cyclohex-3-enyl)(3-(methoxyimino)azetidin-1-yl)methanone]", "values": [{"measurement": "EC50", "setting": "[2]; [3]", "result": 37, "unit": "nM"}, {"measurement": "EC50", "setting": "[2]; read-out: EC50 value", "result": "≤ 50", "unit": "nM"}]}, {"molecule": "CC(C)c1noc(N2CCC(COc3ccc(C4=CCC(C(=O)N5CC(O)C5)CC4)cc3)CC2)n1", "note": "(stereo not shown) [Example 289, (3-hydroxyazetidin-1-yl)(4-(4-((1-(3-isopropyl-1,2,4-oxadiazol-5-yl)piperidin-4-yl)methoxy)phenyl)cyclohex-3-enyl)methanone]", "values": [{"measurement": "EC50", "setting": "[2]; [3]", "result": 32, "unit": "nM"}, {"measurement": "EC50", "setting": "[2]; read-out: EC50 value", "result": "≤ 50", "unit": "nM"}]}]}
